The nature of data set [1]: Cytotoxicity against mouse J774.1 cells. The format is cell-based.
The nature of data set [2]: Cytotoxicity against mouse J7.DEF.3 cells. The format is cell-based.

We go through 19 molecules from ChEMBL document CHEMBL1154484, “A QSAR study for the cytotoxic activities of taxoids against macrophage (MPhi)-like cells” (Eur J Med Chem, 2009).

On to `CC(=O)O[C@H]1C(=O)[C@@]2(C)[C@H]([C@H](OC(=O)c3ccccc3)[C@]3(O)C[C@H](OC(=O)[C@H](O)[C@@H](NC(=O)c4cccc5ccccc45)c4ccccc4)C(C)=C1C3(C)C)[C@]1(OC(C)=O)CO[C@@H]1C[C@@H]2O`, for which the results for the “log(1/C)” value in data set [1] and in data set [2] were 7.17 and 6.43, respectively.

For `CC(=O)O[C@@]12CO[C@@H]1C[C@H](O)[C@@]1(C)C(=O)[C@H](O)C3=C(C)[C@@H](OC(=O)[C@H](O)[C@@H](NC(=O)OC(C)(C)C)c4ccccc4)C[C@@](O)([C@@H](OC(=O)c4ccccc4)[C@H]21)C3(C)C.O.O.O` [DOCETAXEL], the “log(1/C)” value in data set [1] came to 8.24; in data set [2] it was 8.14.

In the case of `CC(=O)O[C@H]1C(=O)[C@@]2(C)[C@H]([C@H](OC(=O)c3ccccc3)[C@]3(O)C[C@H](OC(=O)[C@H](O)[C@@H](NC(=O)c4cccs4)c4ccccc4)C(C)=C1C3(C)C)[C@]1(OC(C)=O)CO[C@@H]1C[C@@H]2O`, the “log(1/C)” value in data set [1] amounted to 8.7; in data set [2] it was 7.8.

Turning to `CC(=O)O[C@H]1C(=O)[C@@]2(C)[C@H]([C@H](OC(=O)c3ccccc3)[C@]3(O)C[C@H](OC(=O)[C@H](O)[C@@H](NC(=O)c4ccc(C(C)(C)C)cc4)c4ccccc4)C(C)=C1C3(C)C)[C@]1(OC(C)=O)CO[C@@H]1C[C@@H]2O`, the “log(1/C)” value in data set [1] was 7.62; in data set [2], 7.6.

With `CC(=O)O[C@H]1C(=O)[C@@]2(C)[C@H]([C@H](OC(=O)c3ccccc3)[C@]3(O)C[C@H](OC(=O)[C@H](O)[C@@H](NC(=O)c4ccc(F)cc4)c4ccccc4)C(C)=C1C3(C)C)[C@]1(OC(C)=O)CO[C@@H]1C[C@@H]2O`, the “log(1/C)” value in data set [1] stood at 7.68; in data set [2], 7.77.

Turning to `CCCc1ccc(C(=O)N[C@@H](c2ccccc2)[C@@H](O)C(=O)O[C@H]2C[C@@]3(O)[C@@H](OC(=O)c4ccccc4)[C@@H]4[C@]5(OC(C)=O)CO[C@@H]5C[C@H](O)[C@@]4(C)C(=O)[C@H](OC(C)=O)C(=C2C)C3(C)C)cc1`, the results for the “log(1/C)” value in data set [1] and in data set [2] were 7.74 and 7.77, respectively.

On to `CC(=O)O[C@H]1C(=O)[C@@]2(C)[C@H]([C@H](OC(=O)c3ccccc3)[C@]3(O)C[C@H](OC(=O)[C@H](O)[C@@H](NC(=O)c4ccc(-c5ccccc5)cc4)c4ccccc4)C(C)=C1C3(C)C)[C@]1(OC(C)=O)CO[C@@H]1C[C@@H]2O`, for which the “log(1/C)” value in data set [1] was determined as 7.31; in data set [2], 6.85.

For the molecule `CC(=O)O[C@H]1C(=O)[C@@]2(C)[C@H]([C@H](OC(=O)c3ccccc3)[C@]3(O)C[C@H](OC(=O)[C@H](O)[C@@H](NC(=O)c4ccc(C)cc4)c4ccccc4)C(C)=C1C3(C)C)[C@]1(OC(C)=O)CO[C@@H]1C[C@@H]2O`, the “log(1/C)” value in data set [1] was 7.77; in data set [2], 7.82.

Take `COc1ccc(C(=O)N[C@@H](c2ccccc2)[C@@H](O)C(=O)O[C@H]2C[C@@]3(O)[C@@H](OC(=O)c4ccccc4)[C@@H]4[C@]5(OC(C)=O)CO[C@@H]5C[C@H](O)[C@@]4(C)C(=O)[C@H](OC(C)=O)C(=C2C)C3(C)C)cc1`: the “log(1/C)” value in data set [1] was determined as 7.23; in data set [2], 7.43.

For the molecule `COc1ccc(C(=O)N[C@@H](c2ccccc2)[C@@H](O)C(=O)O[C@H]2C[C@@]3(O)[C@@H](OC(=O)c4ccccc4)[C@@H]4[C@]5(OC(C)=O)CO[C@@H]5C[C@H](O)[C@@]4(C)C(=O)[C@H](OC(C)=O)C(=C2C)C3(C)C)cc1OC`, the “log(1/C)” value is on record as 7.21 in data set [1] and 7.24 in data set [2].

Regarding `CC(=O)O[C@H]1C(=O)[C@@]2(C)[C@H]([C@H](OC(=O)c3ccccc3)[C@]3(O)C[C@H](OC(=O)[C@H](O)[C@@H](NC(=O)c4ccc(Cl)cc4)c4ccccc4)C(C)=C1C3(C)C)[C@]1(OC(C)=O)CO[C@@H]1C[C@@H]2O`, the “log(1/C)” value in data set [1] came to 7.52; in data set [2], 7.59.

In the case of `CC(=O)O[C@H]1C(=O)[C@@]2(C)[C@H]([C@H](OC(=O)c3ccccc3)[C@]3(O)C[C@H](OC(=O)[C@H](O)[C@@H](NC(=O)c4ccco4)c4ccccc4)C(C)=C1C3(C)C)[C@]1(OC(C)=O)CO[C@@H]1C[C@@H]2O`, the “log(1/C)” value in data set [1] came to 8.3; in data set [2], 6.7.

With `COc1ccc(C(=O)N[C@@H](c2ccccc2)[C@@H](O)C(=O)O[C@H]2C[C@@]3(O)[C@@H](OC(=O)c4ccccc4)[C@@H]4[C@]5(OC(C)=O)CO[C@@H]5C[C@H](O)[C@@]4(C)C(=O)[C@H](OC(C)=O)C(=C2C)C3(C)C)c(OC)c1`, the results for the “log(1/C)” value in data set [1] and in data set [2] were 7.12 and 7.08, respectively.

In the case of `CC(=O)O[C@H]1C(=O)[C@@]2(C)[C@H]([C@H](OC(=O)c3ccccc3)[C@]3(O)C[C@H](OC(=O)[C@H](O)[C@@H](NC(=O)c4ccc5ccccc5c4)c4ccccc4)C(C)=C1C3(C)C)[C@]1(OC(C)=O)CO[C@@H]1C[C@@H]2O`, the “log(1/C)” value in data set [1] is 7.68; in data set [2], 7.26.

Turning to `CC(=O)O[C@H]1C(=O)[C@@]2(C)[C@H]([C@H](OC(=O)c3ccccc3)[C@]3(O)C[C@H](OC(=O)[C@H](O)[C@@H](NC(=O)c4ccc(F)cc4F)c4ccccc4)C(C)=C1C3(C)C)[C@]1(OC(C)=O)CO[C@@H]1C[C@@H]2O`, the “log(1/C)” value in data set [1] stood at 7.59; in data set [2], 7.6.

As for `CC(=O)O[C@H]1C(=O)[C@@]2(C)[C@H]([C@H](OC(=O)c3ccccc3)[C@]3(O)C[C@H](OC(=O)[C@H](O)[C@@H](NC(=O)/C=C/c4ccccc4)c4ccccc4)C(C)=C1C3(C)C)[C@]1(OC(C)=O)CO[C@@H]1C[C@@H]2O`, the entries for the “log(1/C)” value in data set [1] and in data set [2] were 7.52 and 7.11, respectively.

Take `CCc1ccc(C(=O)N[C@@H](c2ccccc2)[C@@H](O)C(=O)O[C@H]2C[C@@]3(O)[C@@H](OC(=O)c4ccccc4)[C@@H]4[C@]5(OC(C)=O)CO[C@@H]5C[C@H](O)[C@@]4(C)C(=O)[C@H](OC(C)=O)C(=C2C)C3(C)C)cc1`: the “log(1/C)” value amounted to 7.82 in data set [1] and 7.85 in data set [2].

In the case of `CC(=O)O[C@H]1C(=O)[C@@]2(C)[C@H]([C@H](OC(=O)c3ccccc3)[C@]3(O)C[C@H](OC(=O)[C@H](O)[C@@H](NC(=O)Cc4ccccc4)c4ccccc4)C(C)=C1C3(C)C)[C@]1(OC(C)=O)CO[C@@H]1C[C@@H]2O`, the “log(1/C)” value in data set [1] is given as 7.11; in data set [2], 7.32.

As for `CC(=O)O[C@H]1C(=O)[C@@]2(C)[C@H]([C@H](OC(=O)c3ccccc3)[C@]3(O)C[C@H](OC(=O)[C@H](O)[C@@H](NC(=O)c4ccccc4)c4ccccc4)C(C)=C1C3(C)C)[C@]1(OC(C)=O)CO[C@@H]1C[C@@H]2O` [PACLITAXEL], the “log(1/C)” value is 7.48 in data set [1] and 7.52 in data set [2].
